In patent publication US9314510B2, “Human laminin α2 chain LG3 domain and active peptides promoting cell adhesion, spreading, migration, and neurite outgrowth” (SNU R&DB Foundation, priority 2011, dated 2016):

Key:
[1] = tested on: PC12 cells; assay: Effect of PKC inhibitor pretreatment on cell adhesion, spreading, migration and stress fiber formation; type: cell-based, rat; details: Gö6976 2.5 or 5.0 nM, rottlerin 1 or 5 μM, 15 min
Experimental: PC12 cells were pretreated with Gö6976 or rottlerin for 15 min at 37° C. and seeded on laminin-, rLG3-, or Ln2-LG3-P2-coated plates and then, cell adhesion, spreading, migration, and stress fiber formation were observed. To observe cell adhesion, the pretreated PC12 cells were incubated for 1 h and to observe cell spreading and stress fiber formation, the pretreated PC12 cells were incubated on the coated plates for 3 h. In addition, to observe cell migration, the pretreated PC12 cells were incubated on the coated plates for 24 h.

[2] = tested on: FAK Tyr-397; assay: Effect of PKC inhibitors on FAK phosphorylation at Tyr-397; type: cell-based, rat; details: PC12 cells pretreated with 5 nM Gö6976 or 5 μM rottlerin 15 min, laminin, rLG3, Ln2-LG3-P2 plates
Experimental: PC12 cells were pretreated with 5 nM Gö6976 or 5 μM rottlerin for 15 min at 37° C. and seeded on laminin-, rLG3-, or Ln2-LG3-P2-coated plates for 15 min in serum-free medium.

[3] = tested on: PKCα/β; details: PKCα/β inhibitor; cited from earlier work
[4] = tested on: PC12 cells; assay: Cell viability with PKC inhibitors; details: at the concentrations used and duration of treatment
[5] = tested on: PC12 cells; assay: Effect of PLC inhibitor on cell adhesion and spreading; type: cell-based, rat; details: 0.5 or 1.0 μM
[6] = tested on: PC12 cells; details: cited from earlier work
[7] = tested on: PC12 cells; assay: Effect of Rho-kinase inhibitor on stress fibers; type: cell-based, rat; details: cells seeded 1 h, then 10 μM for 2 h
Experimental: PC12 cells were seeded on glass slide chambers coated with laminin, rLG3, or Ln2-LG3-P2 for 1 h. The cells were treated with […] Y27632, a selective inhibitor of Rho-associated protein kinase, for 2 h in serum-free medium and immunostained with rhodamine-phalloidin.

[8] = tested on: PC12 cells; assay: Effect of rottlerin on stress fibers of already spread cells; type: cell-based, rat; details: 2.5 h incubation, then 5 μM for 30 min
Experimental: PC12 cells were seeded on glass slide chambers coated with laminin, rLG3, or Ln2-LG3-P2. After 2.5 h incubation, the cells were treated with 5 μM rottlerin for 30 min and immunostained with rhodamine-phalloidin.

[9] = target: PKCδ (Homo sapiens, UniProt Q05655); details: PKCδ inhibitor; cited from earlier work
Sequence of PKCδ (Q05655 whole entry): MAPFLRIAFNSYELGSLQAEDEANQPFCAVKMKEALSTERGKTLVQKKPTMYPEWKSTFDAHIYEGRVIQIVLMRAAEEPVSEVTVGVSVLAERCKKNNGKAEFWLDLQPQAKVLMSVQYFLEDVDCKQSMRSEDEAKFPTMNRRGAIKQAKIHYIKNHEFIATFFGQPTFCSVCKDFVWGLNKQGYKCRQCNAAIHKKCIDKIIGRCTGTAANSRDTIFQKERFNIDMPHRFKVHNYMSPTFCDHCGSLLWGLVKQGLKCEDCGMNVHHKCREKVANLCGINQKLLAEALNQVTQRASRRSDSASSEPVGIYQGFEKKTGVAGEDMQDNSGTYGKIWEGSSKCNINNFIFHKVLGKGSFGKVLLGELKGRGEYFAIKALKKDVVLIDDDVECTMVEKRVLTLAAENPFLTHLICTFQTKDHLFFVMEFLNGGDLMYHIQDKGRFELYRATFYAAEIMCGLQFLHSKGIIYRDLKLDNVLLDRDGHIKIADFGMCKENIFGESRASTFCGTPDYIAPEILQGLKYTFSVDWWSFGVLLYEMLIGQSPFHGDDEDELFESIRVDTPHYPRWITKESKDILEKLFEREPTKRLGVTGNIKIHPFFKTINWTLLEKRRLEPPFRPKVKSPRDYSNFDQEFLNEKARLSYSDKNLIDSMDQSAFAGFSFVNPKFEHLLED

[10] = tested on: fibroblasts; details: 1-3 μM; cited from earlier work

Cn1c2ccccc2c2c3c(c4c5ccccc5n(CCC#N)c4c21)CNC3=O [Gö6976]
spreading of PC12 cells to laminin, rLG3, and Ln2-LG3-P2 after inhibitor pretreatment ([1]; 3 h): not with Gö6976 significantly impaired | level of FAK phosphorylation at Tyr-397 [2]: did not affect | IC50 [3]: 2.3 nM | cell viability [4]: did not affect cell viability

COc1ccc2c(c1)CC[C@@H]1[C@@H]2CC[C@]2(C)[C@@H](NCCCCCCN3C(=O)C=CC3=O)CC[C@@H]12 [U73122]
cell adhesion to rLG3 and Ln2-LG3-P2 after inhibitor pretreatment ([5]; 15 min, 1 h): reduced by U73122 in a dose-dependent manner | cell spreading to rLG3 and Ln2-LG3-P2 after inhibitor pretreatment ([5]; 15 min, 3 h): reduced | cell adhesion (as printed in legend of FIG. 15B) ([5]; rLG3 and Ln2-LG3-P2 plates, 3 h): reduced by U73122 in a dose-dependent manner | α1β1 integrin-mediated PC12 cell adhesion [6]: reduced

C[C@@H](N)[C@H]1CC[C@H](C(=O)Nc2ccncc2)CC1 [Y27632]
stress fibers of PC12 cells to laminin, rLG3, and Ln2-LG3-P2 [7]: completely disassembled stress fibers

CC(=O)c1c(O)c(C)c(O)c(Cc2c(O)c3c(c(C(=O)/C=C/c4ccccc4)c2O)OC(C)(C)C=C3)c1O [rottlerin]
adhesion of PC12 cells to laminin, rLG3, and Ln2-LG3-P2 after inhibitor pretreatment ([1]; 1 h): significantly impaired | spreading of PC12 cells to laminin, rLG3, and Ln2-LG3-P2 after inhibitor pretreatment ([1]; 3 h): significantly impaired | stress fiber formation of PC12 cells to laminin, rLG3, and Ln2-LG3-P2 after inhibitor pretreatment ([1]; 3 h): significantly impaired | migration of PC12 cells to laminin, rLG3, and Ln2-LG3-P2 after inhibitor pretreatment ([1]; 24 h): significantly impaired | stress fiber formation of PC12 cells already spread on laminin, rLG3, and Ln2-LG3-P2 [8]: did not interfere with stress fiber formation | level of FAK phosphorylation at Tyr-397 [2]: reduced | IC50 [9]: 3000 to 6000 nM | stress fiber formation of fibroblasts pre-spread on fibronectin [10]: does not impair stress fiber formation | cell viability [4]: did not affect cell viability
